# Results: US9862717B2 (Merck Patent GmbH, priority 2014, dated 2018)
# pIC50: −log10 of the molar value. Like-named read-outs stand apart in the source and are kept apart here.
# Biological target: T1, CDK8/CycC (Homo sapiens, UniProt P49336)
# T1 construct: purchased Invitrogen PV4402
# Experiment: FRET based Lanthascreen binding competition assay for CDK8 inhibitory activity
# Conditions: CDK8 co-expressed with CycC, class symbols; for IC50: IC50 [μM]
# Outline: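 Competition binding of a dye-labeled ATP-competitive Alexa647 probe to CDK8 co-expressed with CycC, Eu-labeled via biotinylated anti-His antibody/streptavidin.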
# T1 sequence (P49336 whole entry): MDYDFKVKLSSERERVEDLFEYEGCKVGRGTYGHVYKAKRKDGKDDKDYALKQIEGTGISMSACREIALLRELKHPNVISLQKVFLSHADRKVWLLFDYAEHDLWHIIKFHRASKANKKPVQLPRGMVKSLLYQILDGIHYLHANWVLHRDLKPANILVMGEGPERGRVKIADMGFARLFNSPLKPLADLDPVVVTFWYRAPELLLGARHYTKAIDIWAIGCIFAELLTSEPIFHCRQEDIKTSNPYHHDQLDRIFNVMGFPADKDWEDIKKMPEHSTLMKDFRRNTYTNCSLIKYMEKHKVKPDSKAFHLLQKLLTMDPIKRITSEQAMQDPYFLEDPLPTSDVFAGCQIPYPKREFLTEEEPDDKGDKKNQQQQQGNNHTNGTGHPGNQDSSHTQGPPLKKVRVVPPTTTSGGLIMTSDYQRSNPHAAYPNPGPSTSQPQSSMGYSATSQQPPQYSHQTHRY
# T1 sequence (P24863 whole entry partner): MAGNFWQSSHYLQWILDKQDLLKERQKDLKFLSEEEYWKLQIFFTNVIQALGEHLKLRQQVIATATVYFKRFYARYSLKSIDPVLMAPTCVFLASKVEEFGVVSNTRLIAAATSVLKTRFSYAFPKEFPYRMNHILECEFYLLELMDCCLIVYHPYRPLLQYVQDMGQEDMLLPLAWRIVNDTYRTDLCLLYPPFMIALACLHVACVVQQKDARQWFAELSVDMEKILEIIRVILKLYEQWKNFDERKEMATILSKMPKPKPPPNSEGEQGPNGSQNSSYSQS
pIC50 (read-out: IC50),Compound,also measured
> 8.00,"Cc1ccc([C@@H]2CCCN2C(=O)c2cnc3[nH]nc(C)c3c2)cc1 [compound 136, (3-Methyl-1H-pyrazolo[3,4-b]pyridin-5-yl)-((S)-2-p-tolyl-pyrrolidin-1-yl)-methanone]",–
5.00 to 6.00,"Cc1ccc([C@H]2CCCN2C(=O)c2cnc3[nH]nc(C)c3c2)cc1 [compound 137, (3-Methyl-1H-pyrazolo[3,4-b]pyridin-5-yl)-((R)-2-p-tolyl-pyrrolidin-1-yl)-methanone]",–
6.00 to 7.00,"Cc1n[nH]c2ncc(C(=O)N3CCCCC[C@H]3c3cccc(F)c3)cc12 [compound 150, [(S)-2-(3-Fluoro-phenyl)-azepan-1-yl]-(3-methyl-1H-pyrazolo[3,4-b]pyridin-5-yl)-methanone]",–
> 8.00,"O=C(c1cnc2[nH]nc(C3CC3)c2c1)N1CCC[C@H]1c1ccc(Cl)cc1 [compound 152, [(S)-2-(4-Chloro-phenyl)-pyrrolidin-1-yl]-(3-cyclopropyl-1H-pyrazolo[3,4-b]pyridin-5-yl)-methanone]",–
6.00 to 7.00,"O=C(c1cnc2[nH]nc(C3CC3)c2c1)N1CCC[C@@H]1c1ccc(Cl)cc1 [compound 153, [(R)-2-(4-Chloro-phenyl)-pyrrolidin-1-yl]-(3-cyclopropyl-1H-pyrazolo[3,4-b]pyridin-5-yl)-methanone]",–
> 8.00,"Cc1n[nH]c2ncc(C(=O)N3CCC[C@H]3c3ccc(C(F)(F)F)cc3)cc12 [compound 157, (3-Methyl-1H-pyrazolo[3,4-b]pyridin-5-yl)-[(S)-2-(4-trifluoromethyl-phenyl)-pyrrolidin-1-yl]-methanone]",–
6.00 to 7.00,"O=C(c1cnc2[nH]nc(C3CC3)c2c1)N1CCCCC1c1ccccc1 (stereo not drawn) [compound 168, (3-Cyclopropyl-1H-pyrazolo[3,4-b]pyridin-5-yl)-(2-phenyl-piperidin-1-yl)-methanone]",–
6.00 to 7.00,"O=C(c1cnc2[nH]nc(C(F)(F)F)c2c1)N1CCCCC1c1ccccc1 (stereo not drawn) [compound 169, (2-Phenyl-piperidin-1-yl)-(3-trifluoromethyl-1H-pyrazolo[3,4-b]pyridin-5-yl)-methanone]",–
6.00 to 7.00,"Cc1n[nH]c2ncc(C(=O)N3CC[C@@H]3c3ccc(F)cc3)cc12 [compound 175, [(R)-2-(4-Fluoro-phenyl)-azetidin-1-yl]-(3-methyl-1H-pyrazolo[3,4-b]pyridin-5-yl)-methanone]",–
7.00 to 8.00,"Cc1n[nH]c2ncc(C(=O)N3CCCC3c3ccc(Cl)c(F)c3)cc12 (stereo not drawn) [compound 179, [2-(4-Chloro-3-fluoro-phenyl)-pyrrolidin-1-yl]-(3-methyl-1H-pyrazolo[3,4-b]pyridin-5-yl)-methanone]",–
6.00 to 7.00,"O=C(c1cnc2[nH]nc(C(F)(F)F)c2c1)N1CCCC[C@@H]1c1ccccc1 [compound 183, ((R)-2-Phenyl-piperidin-1-yl)-(3-trifluoromethyl-1H-pyrazolo[3,4-b]pyridin-5-yl)-methanone]",–
6.00 to 7.00,"O=C(c1cnc2[nH]nc(C(F)(F)F)c2c1)N1CCCC[C@H]1c1ccccc1 [compound 184, ((S)-2-Phenyl-piperidin-1-yl)-(3-trifluoromethyl-1H-pyrazolo[3,4-b]pyridin-5-yl)-methanone]",–
7.00 to 8.00,"Cc1n[nH]c2ncc(C(=O)N3CCCC3c3ccc(Cl)c(Cl)c3)cc12 (stereo not drawn) [compound 188, [2-(3,4-Dichloro-phenyl)-pyrrolidin-1-yl]-(3-methyl-1H-pyrazolo[3,4-b]pyridin-5-yl)-methanone]",–
> 8.00,"Cc1n[nH]c2ncc(C(=O)N3CCC[C@H]3c3ccc(C(C)C)cc3)cc12 [compound 196, [(S)-2-(4-Isopropyl-phenyl)-pyrrolidin-1-yl]-(3-methyl-1H-pyrazolo[3,4-b]pyridin-5-yl)-methanone]",–
6.00 to 7.00,"Cc1n[nH]c2ncc(C(=O)N3CCC[C@@H]3c3ccc(C(C)C)cc3)cc12 [compound 197, [(R)-2-(4-Isopropyl-phenyl)-pyrrolidin-1-yl]-(3-methyl-1H-pyrazolo[3,4-b]pyridin-5-yl)-methanone]",–
6.00 to 7.00,"Cc1n[nH]c2ncc(C(=O)N3CCC3c3ccc(F)cc3)cc12 (stereo not drawn) [compound 200, [2-(4-Fluoro-phenyl)-azetidin-1-yl]-(3-methyl-1H-pyrazolo[3,4-b]pyridin-5-yl)-methanone]",–
5.00 to 6.00,"Cc1n[nH]c2cc(F)c(C(=O)N3CCC[C@@H]3c3ccc(Cl)cc3)cc12 [compound 203, [(R)-2-(4-Chloro-phenyl)-pyrrolidin-1-yl]-(6-fluoro-3-methyl-1H-indazol-5-yl)-methanone]",–

# Further lines, the compound ahead of its results:
Compound,pIC50 (read-out: IC50),also measured
"Cc1n[nH]c2ncc(C(=O)N3CCC[C@@H](c4ccccc4)C3)cc12 [compound 139, (3-Methyl-1H-pyrazolo[3,4-b]pyridin-5-yl)-((S)-3-phenyl-piperidin-1-yl)-methanone]",6.00 to 7.00,–
"COc1ccccc1C1CCCN1C(=O)c1cnc2[nH]nc(C)c2c1 (stereo not drawn) [compound 141, [2-(2-Methoxy-phenyl)-pyrrolidin-1-yl]-(3-methyl-1H-pyrazolo[3,4-b]pyridin-5-yl)-methanone]",6.00 to 7.00,–
"COc1ccccc1[C@@H]1CCCN1C(=O)c1cnc2[nH]nc(C)c2c1 [compound 143, [(S)-2-(2-Methoxy-phenyl)-pyrrolidin-1-yl]-(3-methyl-1H-pyrazolo[3,4-b]pyridin-5-yl)-methanone]",7.00 to 8.00,–
"Cc1n[nH]c2ncc(C(=O)N3CC[C@@H](N)[C@H]3c3ccc(F)cc3)cc12 [compound 144, [(2R,3R)-3-Amino-2-(4-fluoro-phenyl)-pyrrolidin-1-yl]-(3-methyl-1H-pyrazolo[3,4-b]pyridin-5-yl)-methanone]",7.00 to 8.00,–
"Cc1n[nH]c2ncc(C(=O)N3C[C@@H](O)C[C@H]3c3ccc(F)cc3)cc12 [compound 145, [(2S,4S)-2-(4-Fluoro-phenyl)-4-hydroxy-pyrrolidin-1-yl]-(3-methyl-1H-pyrazolo[3,4-b]pyridin-5-yl)-methanone]",6.00 to 7.00,–
"Nc1n[nH]c2ccc(C(=O)N3CCCC3c3cccc(Cl)c3)cc12 (stereo not drawn) [compound 147, (3-Amino-1H-indazol-5-yl)-[2-(3-chloro-phenyl)-pyrrolidin-1-yl]-methanone]",6.00 to 7.00,–
"Nc1n[nH]c2ccc(C(=O)N3CCCC3c3ccccc3Cl)cc12 (stereo not drawn) [compound 148, (3-Amino-1H-indazol-5-yl)-[2-(2-chloro-phenyl)-pyrrolidin-1-yl]-methanone]",6.00 to 7.00,–
O=C(c1ccc2[nH]ncc2c1)N1CCC[C@H]1c1ccc(Br)cc1 [compound 156],–,IC50: 0.01 to 0.1 µM
"Cc1n[nH]c2ncc(C(=O)N3CCC(C)C3c3ccc(C(F)(F)F)cc3)cc12 (stereo not drawn) [compound 159, (3-Methyl-1H-pyrazolo[3,4-b]pyridin-5-yl)-[3-methyl-2-(4-trifluoromethyl-phenyl)-pyrrolidin-1-yl]-methanone]",7.00 to 8.00,–
"Cc1n[nH]c2ncc(C(=O)N3CC(C)CC3c3ccc(C(F)(F)F)cc3)cc12 (stereo not drawn) [compound 160, (3-Methyl-1H-pyrazolo[3,4-b]pyridin-5-yl)-[4-methyl-2-(4-trifluoromethyl-phenyl)-pyrrolidin-1-yl]-methanone]",6.00 to 7.00,–
"Cc1n[nH]c2ncc(C(=O)N3CCCC3c3ccccc3OCC(F)(F)F)cc12 (stereo not drawn) [compound 162, (3-Methyl-1H-pyrazolo[3,4-b]pyridin-5-yl)-{2-[2-(2,2,2-trifluoro-ethoxy)-phenyl]-pyrrolidin-1-yl}-methanone]",–,pIC50: 6.00 to 7.00
"Nc1n[nH]c2ccc(C(=O)N3CCCC3c3ccc(Cl)c(F)c3)cc12 (stereo not drawn) [compound 167, (3-Amino-1H-indazol-5-yl)-[2-(4-chloro-3-fluoro-phenyl)-pyrrolidin-1-yl] methanone]",7.00 to 8.00,–
"Cc1n[nH]c2ncc(C(=O)N3CC[C@@H](C)[C@H]3c3ccc(C(F)(F)F)cc3)cc12 [compound 172, (3-Methyl-1H-pyrazolo[3,4-b]pyridin-5-yl)-[(2S,3R)-3-methyl-2-(4-trifluoromethyl-phenyl)-pyrrolidin-1-yl]-methanone]",> 8.00,–
Cc1n[nH]c2ccc(C(=O)N3CCOCC3c3ccc(Cl)cc3)cc12 (stereo not drawn) [compound 178],–,IC50: < 0.01 µM
"Cc1n[nH]c2ncc(C(=O)N3CCNC(c4ccccc4)C3)cc12 (stereo not drawn) [compound 182, (3-Methyl-1H-pyrazolo[3,4-b]pyridin-5-yl)-(3-phenyl-piperazin-1-yl)-methanone]",5.00 to 6.00,–
"Cc1n[nH]c2ncc(C(=O)N3C[C@@H](C(N)=O)[C@H](c4ccc(Cl)cc4)C3)cc12 [compound 185, (3S,4R)-4-(4-Chloro-phenyl)-1-(3-methyl-1H-pyrazolo[3,4-b]pyridine-5-carbonyl)-pyrrolidine-3-carboxylic acid amide]",5.00 to 6.00,–
"Cc1n[nH]c2ncc(C(=O)N3C[C@H](C(N)=O)[C@@H](c4ccc(Cl)cc4)C3)cc12 [compound 186, (3R,4S)-4-(4-Chloro-phenyl)-1-(3-methyl-1H-pyrazolo[3,4-b]pyridine-5-carbonyl)-pyrrolidine-3-carboxylic acid amide]",6.00 to 7.00,–
"Cc1n[nH]c2cnc(C(=O)N3CCC[C@H]3c3ccc(Cl)cc3)cc12 [compound 190, [(S)-2-(4-Chloro-phenyl)-pyrrolidin-1-yl]-(3-methyl-1H-pyrazolo[3,4-c]pyridin-5-yl)-methanone]",–,IC50: 0.01 to 0.1 µM
"CC(C)c1ccc([C@@H]2CCCN2C(=O)c2ccc3[nH]nc(N)c3c2)cc1 [compound 194, (3-Amino-1H-indazol-5-yl)-[(S)-2-(4-isopropyl-phenyl)-pyrrolidin-1-yl]-methanone]",> 8.00,–
"CC(C)c1ccc([C@H]2CCCN2C(=O)c2ccc3[nH]nc(N)c3c2)cc1 [compound 195, (3-Amino-1H-indazol-5-yl)-[(R)-2-(4-isopropyl-phenyl)-pyrrolidin-1-yl]-methanone]",6.00 to 7.00,–
"Cc1n[nH]c2ncc(C(=O)N3CC[C@](O)(c4ccccc4)C3)cc12 [compound 198, ((S)-3-Hydroxy-3-phenyl-pyrrolidin-1-yl)-(3-methyl-1H-pyrazolo[3,4-b]pyridin-5-yl)-methanone]",5.00 to 6.00,–
"Cc1n[nH]c2ccc(C(=O)N3CC[C@H]3c3ccc(Cl)cc3)cc12 [compound 202, [(S)-2-(4-Chloro-phenyl)-azetidin-1-yl]-(3-methyl-1H-indazol-5-yl)-methanone]",–,IC50: < 0.01 µM
